The results in this text go back to patent US12617745B2, “Curcusone diterpenoids and uses thereof” (Purdue Research Foundation, priority 2020, dated 2026).

Data set [1] deals with MCF-7 cells. The experiment in a line: Cytotoxicity in MCF-7 cells, WST-1 assay. The data set is classed as cell-based, human. To be noted: for EC50 values against MCF-7 cells, in words / EC50 / IC50 / cytotoxicity / anticancer activity in MCF-7 cells, comparative statement: 24 h compound treatment, WST-1; for EC50: read-out: EC50, viability of MCF-7 cells; for IC50: read-out: IC50 value / antiproliferation activity in MCF-7 cells. From the text: The absorbance at 420 nm and 630 nm was then acquired using a BioTek Synergy H1 microplate reader. Cell viability results were plotted in GraphPad Prism 7.

The target in data set [2] is T1, BRAT1 (Homo sapiens, UniProt Q6PJG6).
T1 sequence (Q6PJG6 1-821): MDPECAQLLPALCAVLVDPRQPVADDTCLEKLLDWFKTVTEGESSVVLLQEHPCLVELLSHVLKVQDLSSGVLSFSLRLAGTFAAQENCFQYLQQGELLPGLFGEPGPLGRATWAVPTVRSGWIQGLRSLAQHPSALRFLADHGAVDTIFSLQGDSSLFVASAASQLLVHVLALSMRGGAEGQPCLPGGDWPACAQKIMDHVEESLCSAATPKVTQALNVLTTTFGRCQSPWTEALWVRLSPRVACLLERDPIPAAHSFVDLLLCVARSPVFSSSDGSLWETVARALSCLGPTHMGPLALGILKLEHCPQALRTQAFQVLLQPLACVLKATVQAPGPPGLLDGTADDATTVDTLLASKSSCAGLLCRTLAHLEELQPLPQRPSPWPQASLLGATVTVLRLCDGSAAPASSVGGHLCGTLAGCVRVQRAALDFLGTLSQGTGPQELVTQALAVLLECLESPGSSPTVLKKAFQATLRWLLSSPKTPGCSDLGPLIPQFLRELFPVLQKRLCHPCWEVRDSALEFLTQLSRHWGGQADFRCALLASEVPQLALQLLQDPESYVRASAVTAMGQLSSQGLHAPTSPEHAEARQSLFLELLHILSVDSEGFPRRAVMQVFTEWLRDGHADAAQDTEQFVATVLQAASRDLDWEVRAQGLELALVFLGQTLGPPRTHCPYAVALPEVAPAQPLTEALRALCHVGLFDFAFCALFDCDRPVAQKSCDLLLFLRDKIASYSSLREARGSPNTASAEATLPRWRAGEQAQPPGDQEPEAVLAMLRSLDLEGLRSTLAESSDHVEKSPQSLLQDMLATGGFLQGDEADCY
The experiment in a line: In situ dose response via competitive pulldown assay with probe 37. The data set is classed as cell-based. Here is the method: HeLa (2.0e6) cells were seeded in 60 mm dishes. […] The lysates were prepared and quantified as described above. Lysates (2 mg/mL, 140 μL) was treated with 10 μM 37 (50× stock in DMSO) for one hour at r.t. and then subjected to click chemistry with biotin azide as described above for one hour at r.t. Proteins were precipitated, re-solubilized in 0.2% SDS in PBS, enriched with 50 μL streptavidin beads, and washed as described above. Proteins were eluted using 30 μL SDS-PAGE reducing loading buffer (4×), subjected to 10 min heat denaturation (95° C.), separated using a 11% SDS-PAGE gel, and visualized via Western blotting as described above. Images were quantified with ImageJ. EC50 and Kitz-Wilson binding constants were calculated using GraphPad Prism 7.

Data set [3] concerns the target T2, FLAG-BRAT1 (Homo sapiens, UniProt Q6PJG6).
T2 construct: expressed in transfected cells; host or cells: HEK-293T, transient transfection, lysate
T2 sequence (Q6PJG6 1-821): T1 sequence (Q6PJG6 1-821)
Briefly: Thermal shift assay of FLAG-BRAT1 via Western blotting. The data set is classed as binding. The following applies: HEK-293T lysate, 30 μM, 34° C. to 61° C. Here is the method: HEK-293T (8e6) cells were seeded in a 10 cm dish in DMEM without pen-strep. After incubating overnight, 24 μg of FLAG-BRAT1 pExp plasmid was incubated for 15 min at r.t. with 96 μL of PEI MAX™ 40K (Polysciences 24765-1) in final volume of 2 mL Opti-MEM (Gibco 11058021). The mixture was then carefully added to the cells. After 24 hours, the cells were carefully washed twice with PBS, and the lysate was prepared by sonication in PBS as described above.
The supernatant was carefully isolated. SDS-PAGE reducing loading buffer (4×) was added to the isolated supernatant, and proteins were transferred to a PVDF (0.2 μm) membrane using wet transfer with tris-glycine transfer buffer (20% methanol) for one hour at 350 mA. Membrane was blocked with 5% milk in tris-buffered saline with 0.1% Tween 20 (TBST) for 30-60 minutes at r.t. and then incubated with primary rabbit polyclonal BRAT1 antibody (Novus NB100-2256, 1:2000 in 5% milk in TBST) overnight shaking at 4° C. Membrane was washed three times for five min with TBST and incubated with anti-rabbit Alexa Fluor 647 (Jackson ImmunoResearch Inc., 1:500 in 5% milk in TBST) for one hour at r.t. Membrane was then washed 3× with TBST and visualized with an Azure Biosystems Sapphire Biomolecular Imager. […]
(In general: A western blot detects proteins with antibodies after separation by electrophoresis.)

In data set [4] the target is T1, BRAT1. The experiment in a line: In situ competitive MS-based target identification. To be noted: MCF-7 cells, 30 μM 1d 4 hours, 10 μM 37. The data set is classed as cell-based. Here is the method:
MCF-7 (8e6) cells were seeded in 10 cm Petri dishes and incubated overnight. […] Lysate was prepared as described above. Lysate (2 mg/mL, 0.75 mL) was treated with 10 μM 37 (50× stock in DMSO) for one hour at r.t. and then subjected to click chemistry. […] (Click Chemistry Tools, 50 μM, 50× stock in DMSO), tris(2-carboxyethyl)phosphine hydrochloride (TCEP) (1 mM, Sigma-Aldrich C4706-2G, 50× fresh stock in water), tris[(1-benzyl-1H1,2,3-triazol-4-yl)methyl]amine (TBTA) (100 μM, Click Chemistry Tools, 16× stock in DMSO:tBuOH 1:4), and copper(II) sulfate (Sigma-Aldrich, 1 mM, 50× stock in water) were added to the proteome and left to react for one hour at r.t. […] Samples were analyzed by LC-MS/MS (see below) and the MS data was processed with MaxQuant (see below).
Peptides were resuspended in water with 0.1% formic acid (FA) and analyzed using EASY-nLC 1200 nano-UHPLC coupled to Q Exactive HF-X Quadrupole-Orbitrap mass spectrometer (Thermo Scientific). […]
The MS data was analyzed with MaxQuant9 (V1.6.1.0)^7 and searched against the human proteome (Uniprot) and a common list of contaminants (included in MaxQuant). […] The minimum peptide length was set to 6 amino acids and peptide re-quantification, label-free quantification (MaxLFQ) and “match between runs” were enabled. […]

Data set [5] relates to HeLa cells. The experiment in a line: Global proteomics profiling using LC-MS/MS. The data set is classed as cell-based, human. To be noted: 3 μM, 24 h, among 3347 quantified proteins.
Data set [6] has as its system HeLa, MCF-7 and MDA-MB-231 cells. Briefly: Transwell migration assay. The following applies: 1 μM, 24 hours, all cell lines. The data set is classed as cell-based, human.
Data set [7] addresses T1, BRAT1. Briefly: In situ competitive pulldown assay via Western blotting. Also on record: endogenous in cells; host or cells: HeLa, MCF-7, MDA-MB-231 (live cells or HeLa lysate). The data set is classed as cell-based.
Data set [8] deals with T1, BRAT1. Briefly: Competitive BRAT1 pulldown with iodoacetamide (binding reversibility). More on the design: endogenous in cells; host or cells: HeLa (HeLa lysate). To be noted: HeLa lysate, IAA 30 mM 1 h pre- or posttreatment, 37 10 μM. Here is the method:
To evaluate the binding reversibility, we performed a competitive BRAT1 pulldown assay with the irreversible cysteine-reactive probe iodoacetamide (IAA). HeLa lysate was treated with 37 (10 μM) for 1 h with either pre- or posttreatment with IAA (30 mM) for 1 h followed by enrichment and Western blot analysis as described above.

Data set [9] has as its target T1, BRAT1. Briefly: BRAT1 protein level after 1d treatment (global proteomics, Western blot). The data set is classed as cell-based. More on the design: endogenous in cells; host or cells: HeLa, MCF-7, MDA-MB-231 (live cells or HeLa lysate). To be noted: added for the final 4 hours of 1d treatment.

Like-named read-outs stand apart in the source and are kept apart here. Peptide text beside a SMILES is read from it. * marks the point of attachment. Cbz = O=C(OCc1ccccc1)*

Usually EC50 stands for the concentration that produces a half-maximal response. `C=C(C)C1CCC(=C)C2C3=C(CC(C)(O)C3=O)C(=O)C(C)=CC12` (single isomer, unassigned; (-)) [1d, (−)-Curcusone D]: the “EC50 values against MCF-7 cells, in words” value in data set [1] is reported as “micromolar”. Moreover, the EC50 was found to be 13.8 µM in data set [1] (Homo sapiens, MCF7) and 2.7 µM in data set [2] (in situ treatment of live HeLa cells, read-out: EC50, competition of BRAT1 enrichment by 37). Further, in [2] (live HeLa cells, 4 h), the “concentration at 50% fractional occupancy (f occ. (50)) of BRAT1” value worked out at 2.7 µM. Also, the “thermal stability of FLAG-BRAT1” value in data set [3] is reported as “thermal destabilization”. The “protein competed from probe 37 enrichment” value in [4] is on record as “best competed target was BRAT1”. Besides, the “number of down-regulated proteins” value in [5] came to 42. Moreover, in data set [5], the “number of up-regulated proteins” value turned out to be 36. Also, the “reduction of cell migration” value in [6] was roughly 4 fold. In addition, the “competition of BRAT1 enrichment by 37” value in [7] (HeLa and MDA-MB-231 cells) is on record as “competed the enrichment of BRAT1”; in data set [7] (MCF-7 cells, 4 hours), “competed”.
As for `C=C(C)[C@H]1CCC(=C)[C@@H]2[C@@H]1C=C(C)C(=O)[C@]21CC=C(C)C1=O` [compound 3, (+)-Spirocurcasone], the IC50 in [1] was 62.7 µM.
For `NC(=O)CI` [IAA, iodoacetamide], in [8], the “competition of BRAT1 enrichment by 37” value is listed as “competed BRAT1 enrichment by 37”.
For (−)-pyracurcasone [compound 33], in [1], the “cytotoxicity / anticancer activity in MCF-7 cells, comparative statement” value was “slightly better antiproliferation activity” and the IC50 is 8 µM.
Turning to (−)-dimericursone A [2a], in [1], the “cytotoxicity / anticancer activity in MCF-7 cells, comparative statement” value was “no toxicity” and the EC50 was greater than 100 µM.
Consider `C=C(C)C1CCC(=C)C2C3=C(C[C@H](C)C3=O)C(=O)C(C)=C[C@@H]12` (single isomer, unassigned; (-)) [1b, (−)-Curcusone B], for which the “EC50 values against MCF-7 cells, in words” value in [1] is “micromolar”. Moreover, the “cytotoxicity value of synthetic sample versus naturally isolated counterpart” value in data set [1] (MCF-7 cells) is listed as “virtually identical”.
`CC(C)C[C@@H](C=O)NC(=O)[C@H](CC(C)C)NC(=O)[C@H](CC(C)C)NC(=O)OCc1ccccc1` [MG132] (Cbz-Leu-Leu-Leu-aldehyde): in data set [9], the “BRAT1 protein levels with proteasome inhibitor” value is recorded as “recovered BRAT1 protein levels”.
